Assay results: PubChem BioAssay AID1963429 (Molecular Pharmacology Branch, DTP, NCI, 2024)

Test system: 126254-015-R-J1-PDC complex spheroid growth, % test/control
Assay: Anticancer human tumor 126254-015-R-J1-PDC patient-derived soft tissue sarcoma cell line growth inhibition [Asc]
Conditions: for IC50: curve of first compound; for viability, T/C: stronger effect = lower value
Method: Multicellular complex tumor spheroid response to apoptosis pathway targeting inhibitors Alrizomadlin, Pelcitoclax, and Dasminapant in combination with a variety of drugs and investigational agents in selected tumor cell lines
The MDM2 inhibitor alrizomadlin, the Bcl-2/Bcl-xL inhibitor pelcitoclax, and the IAPs inhibitor dasminapant were evaluated both individually and in combination with standard of care and investigational anticancer small molecules within a complex spheroid model of solid tumors. . Complex spheroids include a stromal component modeled by human endothelial cells (HUVEC) and fibroblasts modeled by human mesenchymal stem cells (MSCs). The concentration ranges selected for each drug and investigational agent were based upon clinically achievable concentrations if the clinical Cmax of the agent was known.
Compounds. The drugs and investigational agents: alrizomadlin (APG-115; NSC831270), pelcitoclax (APG-1252; NSC835773), dasminapant (APG-1387;NSC834197), TAK-243 (NSC785004), copanlisib (NSC809693), olaparib (NSC753686), talazoparib (NSC767125), cobimetinib (NSC 768068), eltanexor (KPT-8602, NSC 794443), abemaciclib (NSC 768073), sotorasib (NSC818433), adagrasib (NSC 831453), MRTX-1133 (NSC 836407), Iadademestat (ORY1001, NSC 806812), and RMC-4630 (NSC839698), were obtained from the NCI Developmental Therapeutics Program Chemical Repository. The FDA-approved anticancer drug set is available from the Developmental Therapeutics Program at https://dtp.cancer.gov/organization/dscb/obtaining/available plates.htm. […] The stock solutions were prepared in dimethyl sulfoxide (DMSO, Sigma-Aldrich, St. Louis, MO, cat. D2650) at 800-fold the tested concentration and stored at -70 degrees C prior to their use. All drugs and investigational agents were tested over a range starting from a high concentration at or near the clinical Cmax and decreasing in half-log increments. If the clinical Cmax for an agent had not been determined, the highest concentration tested was 10 microM.
The patient-derived cancer (PDC) cell lines include five colon adenocarcinomas: 186277-243-T-J2-PDC, 616215-338-R-J1-PDC, 439559-082-T-J2-PDC, 463943-066-T-J2-PDC, and 519858-162-T-J1-PDC; three pancreatic carcinomas: 323965-272-R-J2-PDC, 521955-158-R6-J3-PDC, and 521955-158-R2-J5-PDC; two uterine sarcomas: 327498-152-R-J2-PDC and 993429-296-R-J1-PDC; two rhabdomyosarcomas: 755483-174-R-J1-PDC and 772245-204-R-J1-PDC; two soft tissue sarcomas: 126254-015-R-J1-PDC and 494315-158-R-J1-PDC; two malignant fibrous histiocytomas: 317291-083-R-J1-PDC and 596521-263-R-J1-PDC; two breast carcinomas: 171881-019-R-J1-PDC and 885512-296-R-J2-PDC; and one ovarian carcinoma: 6556581-035-R-J-PDC were obtained from the NCI PDMR, (https://pdmr.cancer.gov). The established cell lines HSSY-2 synovial sarcoma (RRID:CVCL 8719), SYO-1 synovial sarcoma (RRID:CVCL_7146), MPNST malignant peripheral neural sheath tumor were obtained from the Sloan Kettering Institute. The following established cell lines were purchased from the American Type Culture Collection (ATCC, Manassas, VA), Sor the received from the NCI repository:, PANC-1 pancreatic carcinoma (CRL-1469, RRID:CVCL_0480), OVCAR-5 ovarian carcinoma (RRID:CVCL_1628), OVCAR-8 ovarian carcinoma (RRID:CVCL_1629), , MCF-7 breast carcinoma (CRL-12584, RRID:CVCL_0031), MDA-MB-231 breast carcinoma (CRL-12532, RRID:CVCL_0062), NCI-H1876 small cell lung carcinoma (CRL-5902, RRID:CVCL_1503), NCI-H510A small cell lung carcinoma (HTB-184, RRID:CVCL_1565), NCI-H1417 (CRL-5869, RRID:CVCL_1469), and NCI-H196 small cell lung carcinoma (CRL-5823, RRID:CVCL_1509). Dr. Peter Houghton (Greehey Children's Cancer Research Institute, University of Texas Health Science Center, San Antonio, TX) provided Rh-18 rhabdomyosarcoma (RRID:CVCL_1659). Pooled donor human umbilical vein endothelial cells (HUVEC, Lonza, cat. CC-2519) and human mesenchymal stem cells (hMSC, Lonza, cat. PT-2501) were purchased from Lonza (Walkersville, MD).
Cell Culture. […]
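Also: spheroids exposed to compound for seven days.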
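For viability, T/C in this document: 100% = DMSO vehicle control wells.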

## O=C(c1cc(Cc2n[nH]c(=O)c3ccccc23)ccc1F)N1CCN(C(=O)C2CC2)CC1 + CCN1C(C(=O)NC23CCC(C(=O)O)(CC2)CC3)C(c2cccc(Cl)c2F)C2(C(=O)Nc3cc(Cl)ccc32)C12CCCCC2
Second compound 0.03 µM
  IC50: > 10 µM
Second compound 0.0949 µM
  IC50: > 10 µM
Second compound 0.3 µM
  IC50: > 10 µM
Second compound 0.949 µM
  IC50: > 10 µM
Second compound 3 µM
  IC50: > 10 µM
Second compound 0.03 µM, first compound 0.0316 µM
  viability, T/C: 95.7%
Second compound 0.03 µM, first compound 0.1 µM
  viability, T/C: 87.7%
Second compound 0.03 µM, first compound 0.316 µM
  viability, T/C: 90.3%
Second compound 0.03 µM, first compound 1 µM
  viability, T/C: 74.5%
Second compound 0.03 µM, first compound 3.16 µM
  viability, T/C: 84.1%
Second compound 0.03 µM, first compound 10 µM
  viability, T/C: 60%
Second compound 0.0949 µM, first compound 0.0316 µM
  viability, T/C: 95.5%
Second compound 0.0949 µM, first compound 0.1 µM
  viability, T/C: 100%
Second compound 0.0949 µM, first compound 0.316 µM
  viability, T/C: 87.7%
Second compound 0.0949 µM, first compound 1 µM
  viability, T/C: 97.4%
Second compound 0.0949 µM, first compound 3.16 µM
  viability, T/C: 83.2%
Second compound 0.0949 µM, first compound 10 µM
  viability, T/C: 59.2%
Second compound 0.3 µM, first compound 0.0316 µM
  viability, T/C: 98.4%
Second compound 0.3 µM, first compound 0.1 µM
  viability, T/C: 90.9%
Second compound 0.3 µM, first compound 0.316 µM
  viability, T/C: 92.2%
Second compound 0.3 µM, first compound 1 µM
  viability, T/C: 83.6%
Second compound 0.3 µM, first compound 3.16 µM
  viability, T/C: 77.2%
Second compound 0.3 µM, first compound 10 µM
  viability, T/C: 59%
Second compound 0.949 µM, first compound 0.0316 µM
  viability, T/C: 90%
Second compound 0.949 µM, first compound 0.1 µM
  viability, T/C: 97%
Second compound 0.949 µM, first compound 0.316 µM
  viability, T/C: 93.6%
Second compound 0.949 µM, first compound 1 µM
  viability, T/C: 83.9%
Second compound 0.949 µM, first compound 3.16 µM
  viability, T/C: 73.8%
Second compound 0.949 µM, first compound 10 µM
  viability, T/C: 59.3%
Second compound 3 µM, first compound 0.0316 µM
  viability, T/C: 88.8%
Second compound 3 µM, first compound 0.1 µM
  viability, T/C: 90.5%
Second compound 3 µM, first compound 0.316 µM
  viability, T/C: 93.7%
Second compound 3 µM, first compound 1 µM
  viability, T/C: 85.4%
Second compound 3 µM, first compound 3.16 µM
  viability, T/C: 73.1%
Second compound 3 µM, first compound 10 µM
  viability, T/C: 70.5%

## CCN1C(C(=O)NC23CCC(C(=O)O)(CC2)CC3)C(c2cccc(Cl)c2F)C2(C(=O)Nc3cc(Cl)ccc32)C12CCCCC2 (stereo not given) + CNC(C)C(=O)NC1CN(S(=O)(=O)c2cccc(S(=O)(=O)N3CCC4CCC(C(=O)NC(c5ccccc5)c5ccccc5)N4C(=O)C(NC(=O)C(C)NC)C3)c2)CCC2CCC(C(=O)NC(c3ccccc3)c3ccccc3)N2C1=O
Second compound 0.01 µM
  IC50: > 3 µM
Second compound 0.0316 µM
  IC50: > 3 µM
Second compound 0.1 µM
  IC50: > 3 µM
Second compound 0.316 µM
  IC50: > 3 µM
Second compound 1 µM
  IC50: > 3 µM
Second compound 0.01 µM, first compound 0.00949 µM
  viability, T/C: 88.3%
Second compound 0.01 µM, first compound 0.03 µM
  viability, T/C: 86.9%
Second compound 0.01 µM, first compound 0.0949 µM
  viability, T/C: 87.7%
Second compound 0.01 µM, first compound 0.3 µM
  viability, T/C: 77.1%
Second compound 0.01 µM, first compound 0.949 µM
  viability, T/C: 79.8%
Second compound 0.01 µM, first compound 3 µM
  viability, T/C: 81.2%
Second compound 0.0316 µM, first compound 0.00949 µM
  viability, T/C: 74.4%
Second compound 0.0316 µM, first compound 0.03 µM
  viability, T/C: 69.4%
Second compound 0.0316 µM, first compound 0.0949 µM
  viability, T/C: 70.2%
Second compound 0.0316 µM, first compound 0.3 µM
  viability, T/C: 74.5%
Second compound 0.0316 µM, first compound 0.949 µM
  viability, T/C: 66.4%
Second compound 0.0316 µM, first compound 3 µM
  viability, T/C: 72.3%
Second compound 0.1 µM, first compound 0.00949 µM
  viability, T/C: 66%
Second compound 0.1 µM, first compound 0.03 µM
  viability, T/C: 70%
Second compound 0.1 µM, first compound 0.0949 µM
  viability, T/C: 67.4%
Second compound 0.1 µM, first compound 0.3 µM
  viability, T/C: 64.6%
Second compound 0.1 µM, first compound 0.949 µM
  viability, T/C: 67.7%
Second compound 0.1 µM, first compound 3 µM
  viability, T/C: 66.5%
Second compound 0.316 µM, first compound 0.00949 µM
  viability, T/C: 54.8%
Second compound 0.316 µM, first compound 0.03 µM
  viability, T/C: 68%
Second compound 0.316 µM, first compound 0.0949 µM
  viability, T/C: 60.7%
Second compound 0.316 µM, first compound 0.3 µM
  viability, T/C: 57.2%
Second compound 0.316 µM, first compound 0.949 µM
  viability, T/C: 61%
Second compound 0.316 µM, first compound 3 µM
  viability, T/C: 73%
Second compound 1 µM, first compound 0.00949 µM
  viability, T/C: 52.8%
Second compound 1 µM, first compound 0.03 µM
  viability, T/C: 60.8%
Second compound 1 µM, first compound 0.0949 µM
  viability, T/C: 61.1%
Second compound 1 µM, first compound 0.3 µM
  viability, T/C: 64%
Second compound 1 µM, first compound 0.949 µM
  viability, T/C: 61.5%
Second compound 1 µM, first compound 3 µM
  viability, T/C: 63.2%
